# Source: patent publication US10646460B2, “Pharmaceutical composition for inhibiting growth of cancer stem cells, containing aldehyde inhibitor and biguanide-based compound” (NATIONAL CANCER CENTER, priority 2015, dated 2020)
# What was measured:
# U87 neurosphere cells = test: Analysis of formation of neurospheres; type: cell-based; conditions: 1 μM gossypol, 10 μM phenformin or mixture, 3 weeks, FIG. 3
# Experimental: U87 cells were cultured in DMEM/F-12 medium containing 2 wt % 1×B27, 0.02 wt % bFGF (20 ng/ml), 0.02 wt % EGF (20 ng/ml) and 50 U/ml penicillin-[…] (100×, Gibco, Invitrogen Korea, Seoul, South Korea) to form tumor spheres. Next, the cells were seeded onto a 96-well plate at a density of 10 cells/well and treated with each of 1 μM gossypol, 10 μM phenformin and a mixture of 1 μM gossypol and 10 μM phenformin. Then, the cells were cultured at 37° C. for 3 weeks.
# In FIG. 4, the percent change in the radius of the neurospheres is expressed as the percentage of the average radius of the neurospheres after each treatment relative to the average radius of the neurospheres seeded onto the 96-well plate, and in FIG. 5, the degree of neurosphere formation is expressed as the percentage of the number of the neurosphere cells after each treatment relative to the number of the neurosphere cells seeded onto the 96-well plate.
# U87-luc cells = test: Orthotopic xenograft model (U87-luc cells transplanted into the cerebrum), bioluminescence and survival; type: in vivo, male athymic nude mice; conditions: 5 weeks after transplantation; oral gossypol 40 mg/kg and/or phenformin 100 mg/kg each day, FIG. 7
# Experimental: Gossypol and phenformin to be used in an animal study were dissolved in DMSO and PBS, respectively. A composition for co-administration of gossypol and phenformin was dissolved in PBS containing 10 wt % DMSO and 10 wt % cremophor.
# For preparation of orthotopic xenograft models, 4-8-week-old male athymic nude mice (Central Lab., Korea) were used. For stabilization, the mice were maintained in a sterilized environment for at least one week before use in the experiment while they were fed with a sufficient diet. […] First, the mice were anesthetized by intraperitoneal injection of 30 mg/kg of Zoletil and 10 mg/kg of Xylazine, and 2×10^5 U87-luc cells were transplanted into the right frontal lobe of the cerebrum to a depth of 4.5 mm by use of a Hamilton syringe. The U87-luci cells were injected into five mice of the same group at the same time at a rate of 0.5 l/minute by use of a micro-infusion syringe pump. Thereafter, the mice were administered orally with gossypol (40 mg/kg) and/or phenformin (100 mg/kg) each day.
# An increase or decrease in the body weight was checked each day, and when a mouse whose body weight decreased by 15 wt % compared to the body weight before the start of the experiment, the mouse was euthanized according to the approved protocol. […]
# U87 cells (GBM cells) = test: MTT assay of cell viability following treatment with gossypol; type: cell-based; conditions: 0.5, 1, 5, 10 and 50 μM gossypol, 72 hours, FIG. 1
# Experimental: U87 cells (GBM cells) were treated with 0.5, 1, 5, 10 and 50 μM of gossypol for 72 hours (FIG. 1).
compound,measurement,setting,value
NC(N)=N/C(N)=N/CCc1ccccc1 [phenformin],size of neurosphere cells / presence in cell photographs,U87 neurosphere cells,the size of the neurosphere cells decreased
same,degree of occurrence of brain cancer (bioluminescence signal),U87-luc cells,fluorescence was observed
Cc1cc2c(C(C)C)c(O)c(O)c(C=O)c2c(O)c1-c1c(C)cc2c(C(C)C)c(O)c(O)c(C=O)c2c1O [gossypol],size of neurosphere cells / presence in cell photographs,U87 neurosphere cells,the size of the neurosphere cells decreased
same,degree of occurrence of brain cancer (bioluminescence signal),U87-luc cells,fluorescence was observed
same,growth of the cells (MTT assay),U87 cells (GBM cells),growth of the cells was inhibited
